Results from patent publication US9358228B2, “Therapeutic combinations of netupitant and palonosetron” (Helsinn Healthcare SA, priority 2011, dated 2016).

Key:
Assay type in all cases: in vivo, rat
[1] = tested on: SNL and Sham rats; experiment: Rotarod motor performance; conditions: FIG. 3, 0.03, 0.3 and 3 mg/kg
Description: The rotarod was also used to assess potential effects on motor performance of Netupitant and Palonosetron. Acceleration of the rotarod was set to increase from 0 to 20 revolutions per minute over the period of one minute. Due to initial, non-linear acceleration, rats were placed on the rotarod locked at a speed of 8 revolutions per minute. The rotarod was then set to accelerate and the latency to fall from the rotarod was timed from this point.

[2] = tested on: spinal dorsal horn neurones in SNL rats; experiment: Electrophysiology: electrically-evoked dorsal horn neural responses; conditions: for AB-Fiber Response, Number of Action Potentials / AD-Fiber Response, Number of Action Potentials / C-Fiber Response, Number of Action Potentials / Input Response, Number of Action Potentials / Post Discharge Response, Number of Action Potentials / Wind-up Response, Number of Action Potentials: SNL rats, mean ± S.E.
Experimental: (§1) Electrophysiology experiments were conducted on post-operative days 14-17 in anaesthetised rats.
(§2) We recorded the evoked responses of dorsal horn lamina V-VI neurones to stimulation of the peripheral receptive field with: • a train of 16 electrical pulses at 3×C-fibre threshold • mechanical von Frey filaments of increasing force—vf 2 g, 8 g, 26 g and 60 g applied to the centre of the receptive field for 10 seconds • heat—40, 45 and 48° C. applied to the centre of the receptive field by a constant water jet for 10 seconds
(§3) Following 3 stable baseline responses, 0.03 mg/kg Palonosetron and 0.10 mg/kg Netupitant were administered into the scruff of the neck by subcutaneous injection. Drug effects were followed for two hours with tests carried out at 10, 30, 50, 70, 90 and 110 minutes post injection.
Input represents the post-synaptic C-fibre-evoked dorsal horn neuronal response following the first of the 16 electrical stimuli in the electrical train. It gives a measure of resting pre-synaptic activity (taken as total neuronal responsiveness upstream of the neurone under study, therefore including afferent excitability, activity at terminals and interneurones) and transmitter release in the absence of potentiation. The baseline ‘input’ response given numerically and graphically in this and other studies, was calculated as the number of C-fibre-evoked action potentials produced by the first stimulus (i.e. initial baseline response) multiplied by the total number of stimuli. Aβ-, Aδ-, and C-fibre responses denote the number of action potentials respectively generated in the spinal cord as a consequence of Aβ-, Aδ-, and C-fibre activity following electrical stimulation of their peripheral receptive field. Our Spike 2 Data Capturing software separates out which incoming action potentials are carried by which fibre according to their latency to arrive in the spinal cord following generation (given the different conduction velocities of the fibres). Thus, those arriving within 20 ms of peripheral stimulation are attributed to Aβ-fibres, Aδ-fibres=20-90 ms, and C-fibre-evoked responses were taken as those recorded 90-300 ms after electrical stimulation. Neuronal responses that trail behind between 300-800 ms post-stimulus are quantified as post-discharge, and represent spinal cord hyperexcitability that results as a consequence of repetitive stimulation of the neurone. Activity-dependent hyperexcitability can additionally be measured as wind-up. This value is calculated as the difference between the total number of action potentials at C-fibre latency produced by the train of 16 electrical stimuli, and ‘input’ as defined and calculated above. Therefore, if the first electrical stimulus elicited 15 C-fibre-evoked action potentials, and the total number of C-fibre-evoked action potentials recorded after 16 stimuli was 350, then wind up=350−([…])=200. If each post-synaptic response was independent of previous activity, then in the example above, the cumulative number of action potentials evoked by C-fibres after the 16 electrical stimuli should theoretically be […]. However, temporal summation of action potentials, and post-synaptic hyperexcitability amplify responses, so wind-up is a measure of the additional action potentials recorded above the predicted baseline level.

[3] = tested on: spinal dorsal horn neurones in SNL rats; experiment: Electrophysiology: mechanical, heat and brush evoked dorsal horn neural responses; conditions: mean ± S.E.
Experimental: as §1, §2, §3

In the case of `Cl.O=C1c2cccc3c2[C@H](CCC3)CN1[C@@H]1CN2CCC1CC2` [Palo, (3aS)-2-[(S)-1-Azabicyclo[2.2.2]oct-3-yl]-2,3,3a,4,5,6-hexahydro-1-oxo-1Hberiz[de]isoquinoline], the “motor performance, total time spent on a rotarod” value [1] is reported as “did not impair motor performance”, the “AB-Fiber Response, Number of Action Potentials” value ([2]; Palo 0.03 mg/kg s.c.) is reported as 141 ± 22 and the “AD-Fiber Response, Number of Action Potentials” value ([2]; Palo 0.03 mg/kg s.c.) is reported as 192 ± 51. The “C-Fiber Response, Number of Action Potentials” value ([2]; Palo 0.03 mg/kg s.c.) was 518 ± 103, the “Input Response, Number of Action Potentials” value ([2]; Palo 0.03 mg/kg s.c.) was 461 ± 86 and the “Post Discharge Response, Number of Action Potentials” value ([2]; Palo 0.03 mg/kg s.c.) was 417 ± 127. The “Wind-up Response, Number of Action Potentials” value ([2]; Palo 0.03 mg/kg s.c.) was 559 ± 192, the “effect on electrophysiological measures of pain control, agent alone” value [2] was “zero or minimal effect” and the “Brush-Evoked, Number of Action Potentials” value ([3]; Palo 0.03 mg/kg s.c.) was 144 ± 59. The “Heat-Evoked 40° Celsius, Number of Action Potentials” value ([3]; Palo 0.03 mg/kg s.c.) was 136 ± 58, the “Heat-Evoked 45° Celsius, Number of Action Potentials” value ([3]; Palo 0.03 mg/kg s.c.) was 380 ± 187 and the “Heat-Evoked 48° Celsius, Number of Action Potentials” value ([3]; Palo 0.03 mg/kg s.c.) was 816 ± 101. For the same compound, the “Mechanically-Evoked 8 g vF Filament, Number of Action Potentials” value ([3]; Palo 0.03 mg/kg s.c.) was 211 ± 42, the “Mechanically-Evoked 26 g vF Filament, Number of Action Potentials” value ([3]; Palo 0.03 mg/kg s.c.) was 539 ± 17 and the “Mechanically-Evoked 60 g vF Filament, Number of Action Potentials” value ([3]; Palo 0.03 mg/kg s.c.) was 799 ± 192.
In the case of `Cc1ccccc1-c1cc(N2CCN(C)CC2)ncc1N(C)C(=O)C(C)(C)c1cc(C(F)(F)F)cc(C(F)(F)F)c1` [Netu, 2-[3,5-bis(trifluoromethyl)phenyl]-N,2-dimethyl-N-[4-(2-methylphenyl)-6-(4-methylpiperazin-1-yl)pyridin-3-yl]propanamide], the “AB-Fiber Response, Number of Action Potentials” value ([2]; Netu 0.1 mg/kg s.c.) is reported as 135 ± 10, the “AD-Fiber Response, Number of Action Potentials” value ([2]; Netu 0.1 mg/kg s.c.) is reported as 103 ± 13 and the “C-Fiber Response, Number of Action Potentials” value ([2]; Netu 0.1 mg/kg s.c.) is reported as 292 ± 45. For the same compound, the “Input Response, Number of Action Potentials” value ([2]; Netu 0.1 mg/kg s.c.) was 293 ± 46, the “Post Discharge Response, Number of Action Potentials” value ([2]; Netu 0.1 mg/kg s.c.) was 195 ± 29 and the “Wind-up Response, Number of Action Potentials” value ([2]; Netu 0.1 mg/kg s.c.) was 270 ± 38. For the same compound, the “effect on electrophysiological measures of pain control, agent alone” value [2] was “independent effect”, the “Brush-Evoked, Number of Action Potentials” value ([3]; Netu 0.1 mg/kg s.c.) was 310 ± 40 and the “Heat-Evoked 40° Celsius, Number of Action Potentials” value ([3]; Netu 0.1 mg/kg s.c.) was 298 ± 72. The “Heat-Evoked 45° Celsius, Number of Action Potentials” value ([3]; Netu 0.1 mg/kg s.c.) was 381 ± 82, the “Heat-Evoked 48° Celsius, Number of Action Potentials” value ([3]; Netu 0.1 mg/kg s.c.) was 495 ± 186 and the “Mechanically-Evoked 8 g vF Filament, Number of Action Potentials” value ([3]; Netu 0.1 mg/kg s.c.) was 190 ± 42. The “Mechanically-Evoked 26 g vF Filament, Number of Action Potentials” value ([3]; Netu 0.1 mg/kg s.c.) was 390 ± 56 and the “Mechanically-Evoked 60 g vF Filament, Number of Action Potentials” value ([3]; Netu 0.1 mg/kg s.c.) was 486 ± 75.
